Results on 53 compounds are retold here after patent publication US10258602B2 (Ocera Therapeutics, Inc., priority 2007, dated 2019).

SMILES strings stand for the structures. pKi: −log10 of the molar value.

For one test, the target named is human growth hormone secretagogue receptor (hGHS-R1a) (Homo sapiens, UniProt Q92847). Kind of test: Competitive radioligand binding assay (ghrelin receptor), standard method A.
Chain of human growth hormone secretagogue receptor (hGHS-R1a) (Q92847 whole entry): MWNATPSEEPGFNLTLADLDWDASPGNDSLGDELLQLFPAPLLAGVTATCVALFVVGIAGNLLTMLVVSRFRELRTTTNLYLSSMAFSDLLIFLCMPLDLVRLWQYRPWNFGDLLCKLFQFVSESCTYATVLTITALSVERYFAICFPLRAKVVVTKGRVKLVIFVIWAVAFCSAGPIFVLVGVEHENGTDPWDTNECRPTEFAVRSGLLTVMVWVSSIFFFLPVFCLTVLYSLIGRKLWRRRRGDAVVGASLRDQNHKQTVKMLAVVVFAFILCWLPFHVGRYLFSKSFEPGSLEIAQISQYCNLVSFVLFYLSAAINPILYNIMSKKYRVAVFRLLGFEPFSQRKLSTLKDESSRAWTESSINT
Conditions: not given
From the text:
A competitive binding assay at the human growth hormone secretagogue receptor (hGHS-R1a) can be carried out analogously to assays described in the literature. (Bednarek, M. A.; et al. J. Med. Chem. 2000, 43, 4370-4376; Palucki, B. L.; et al. Bioorg. Med. Chem. Lett. […], 11, 1955-1957.) See also U.S. patent application Ser. Nos. 11/149,512 and 11/149,731. Binding activity at the gherlin receptor for representative compounds of the present invention is shown in the Examples below.
By pKi is commonly meant −log10 of the Ki, conventionally taken in molar units. A higher pKi goes with a low Ki. With `CCC(C)[C@@H]1NCC(C)(C)Oc2ccccc2CCCNC(=O)[C@@H](Cc2ccccc2)NC(=O)[C@@H](C)N(C)C1=O` (some centres unmarked) [Compound 923], the pKi was at least 7.00.

Still in this test, the particulars now being: binding activity at the human ghrelin receptor, standard method A.
`CC1CNC(C2CC2)C(=O)N(C)C(C)C(=O)NC(CC2CCCC2)C(=O)NCCCc2ccccc2O1` (mixture of isomers) [Compound 1047] gave a pKi of at least 7.00.
On the same count and under the same terms, the same measure for `CC1CNC(C2CC2)C(=O)N(C)C(C)C(=O)NC(Cc2ccc(O)c(F)c2)C(=O)NCCCc2ccccc2O1` (mixture of isomers) [Compound 1049]: at least 7.00; for `CC1CNC(C2CC2)C(=O)N(C)C(C)C(=O)NC(Cc2ccc(F)cc2)C(=O)NCCCC2CCCCC2O1` (mixture of isomers) [Compound 1052]: at least 9.00; for `CC(=O)Oc1ccc(CC2NC(=O)C(C)N(C)C(=O)C(C3CC3)NCC(C)Oc3ccccc3CCCNC2=O)cc1F` (mixture of isomers) [Compound 1065]: at least 7.00.
The same measure, in the same setting: for `CC1C(=O)NC(Cc2ccc(O)c(F)c2)C(=O)NCCCc2ncccc2OCCNC(C2CC2)C(=O)N1C` (mixture of isomers) [Compound 1078] the value was at least 7.00; for `CC1CNC(C2CC2)C(=O)N(C)C(C)C(=O)NC(Cc2ccccc2O)C(=O)NCCCc2ccccc2O1` (mixture of isomers) [Compound 1101], at least 6.30.
Same read-out and setting: the same measure for `CC1CNC(C2CC2)C(=O)N(C)C(C)C(=O)NC(CC2CCCC2)C(=O)NCCCC2CCCCC2O1` (mixture of isomers) [Compound 1114]: at least 9.00; for `CC1CNC(C2CC2)C(=O)N(C)C(C)C(=O)NC(Cc2ccccc2O)C(=O)NCCCC2CCCCC2O1` (mixture of isomers) [Compound 1115]: at least 6.30.
In the case of `C[C@@H]1CN[C@@H](C2CC2)C(=O)N(C)[C@H](C)C(=O)N[C@H](Cc2ccccc2)C(=O)NCCCc2ccccc2O1` [Compound 851], the negative logarithm of the Ki (pKi) is at least 7.00.
Same read-out and setting: the same measure for `CCC[C@@H]1NC[C@@H](C)Oc2ccccc2CCCNC(=O)[C@@H](Cc2ccc(F)cc2)NC(=O)[C@@H](C)N(C)C1=O` [Compound 853]: at least 7.00; for `CC[C@H](C)[C@@H]1NC[C@@H](C)Oc2ccccc2CCCNC(=O)[C@@H](Cc2ccc(F)cc2)NC(=O)[C@@H](C)N(C)C1=O` [Compound 855]: at least 7.00; for `CC[C@H](C)[C@@H]1NC[C@@H](C)Oc2cc(F)ccc2CCCNC(=O)[C@@H](Cc2ccc(F)cc2)NC(=O)[C@@H](C)N(C)C1=O` [Compound 856]: at least 6.30.
On the same count and under the same terms, the same measure for `CC(C)[C@@H]1NC[C@@H](C)Oc2ccccc2CCCNC(=O)[C@@H](Cc2ccc(F)cc2)NC(=O)[C@@H](C)N(C)C1=O` [Compound 857]: at least 6.30; for `CCC[C@@H]1NC[C@@H](C)Oc2ccccc2CCCNC(=O)[C@@H](Cc2ccccc2)NC(=O)[C@@H](C)N(C)C1=O` [Compound 858]: at least 6.30.
Compound `CCC[C@@H]1NC[C@H](C)Oc2ccccc2CCCNC(=O)[C@@H](Cc2ccccc2)NC(=O)[C@@H](C)N(C)C1=O` [Compound 859] had a pKi of at least 6.30.
The same measure, in the same setting: the same measure for `Cc1ccc(C[C@H]2NC(=O)[C@@H](C)N(C)C(=O)[C@H](C3CC3)NCCOc3ccccc3CCCNC2=O)cc1` [Compound 860]: at least 8.00; for `CCC[C@@H]1NC[C@@H](C)Oc2ccccc2CCCNC(=O)[C@@H](Cc2ccc(Cl)cc2)NC(=O)[C@@H](C)N(C)C1=O` [Compound 863]: at least 7.00; for `C[C@@H]1C(=O)N[C@H](Cc2ccc(Cl)cc2)C(=O)NCCCc2ccc(F)cc2OCCN[C@@H](C2CC2)C(=O)N1C` [Compound 864]: at least 8.00.
The same measure, in the same setting: the same measure for `C[C@@H]1C(=O)N[C@H](Cc2ccccc2)C(=O)NCCCc2ccc(F)cc2OCCN[C@@H](C2CC2)C(=O)N1C` [Compound 865]: at least 7.00; for `CCC[C@@H]1NC[C@@H](C)Oc2ccccc2CCCNC(=O)[C@@H](Cc2ccc(OC)cc2)NC(=O)[C@@H](C)N(C)C1=O` [Compound 866]: at least 7.00; for `COc1ccc(C[C@H]2NC(=O)[C@@H](C)N(C)C(=O)[C@H](C3CC3)NC[C@@H](C)Oc3ccccc3CCCNC2=O)cc1` [Compound 867]: at least 7.00.
On the same count and under the same terms, the same measure for `CC(C)[C@@H]1NC[C@H](C)Oc2ccccc2CCCNC(=O)[C@@H](Cc2ccccc2)NC(=O)[C@@H](C)N(C)C1=O` [Compound 870]: at least 6.30; for `CC(C)[C@@H]1NC[C@@H](C)Oc2ccccc2CCCNC(=O)[C@@H](Cc2ccccc2)NC(=O)[C@@H](C)N(C)C1=O` [Compound 871]: at least 6.30.
In the case of `C[C@@H]1C(=O)N[C@H](Cc2ccccc2Cl)C(=O)NCCCc2ccccc2OCCN[C@@H](C2CC2)C(=O)N1C` [Compound 872], the pKi was at least 8.00.
In turn, `C[C@@H]1C(=O)N[C@H](Cc2cccc(Cl)c2)C(=O)NCCCc2ccccc2OCCN[C@@H](C2CC2)C(=O)N1C` [Compound 873] showed a pKi of at least 7.00.
Compound `C[C@@H]1C(=O)N[C@H](Cc2ccccc2)C(=O)NCCCc2cccc3c2OC(CC3)CN[C@@H](C2CC2)C(=O)N1C` (some centres unmarked) [Compound 874] had a pKi of at least 7.00.
On the same count and under the same terms, the same measure for `C[C@@H]1CN[C@@H](C2CC2)C(=O)N(C)[C@H](C)C(=O)N[C@H](Cc2ccccc2)C(=O)NCCCc2ccc(F)cc2O1` [Compound 876]: at least 7.00; for `CC[C@H](C)[C@@H]1NC[C@@H](C)Oc2ccccc2CCCNC(=O)[C@@H](Cc2ccc(Cl)cc2)NC(=O)[C@@H](C)N(C)C1=O` [Compound 878]: at least 7.00; for `C[C@@H]1CN[C@@H](C2CC2)C(=O)N(C)[C@H](C)C(=O)N[C@H](Cc2ccc(Cl)cc2)C(=O)NCCCc2cccc(F)c2O1` [Compound 936]: at least 7.00.
`C[C@@H]1CN[C@@H](C2CC2)C(=O)N(C)[C@H](C)C(=O)N[C@H](Cc2ccc(F)cc2)C(=O)NCCCc2c(F)cccc2O1` [Compound 937] gave a pKi of at least 6.30.
Still for that read-out and setting: the same measure for `C[C@@H]1CN[C@@H](C2CC2)C(=O)N(C)[C@H](C)C(=O)N[C@H](Cc2ccc(Cl)cc2)C(=O)NCCCc2c(F)cccc2O1` [Compound 938]: at least 7.00; for `CC[C@H](C)[C@@H]1NC[C@@H](C)Oc2ccccc2CCCNC(=O)[C@@H](Cc2ccccc2)NC(=O)[C@@H](CO)N(C)C1=O` [Compound 939]: at least 7.00; for `C[C@@H]1C(=O)N[C@H](Cc2ccc(F)cc2)C(=O)NCCCc2cccc3c2OC(CC3)CN[C@@H](C2CC2)C(=O)N1C` (some centres unmarked) [Compound 946]: at least 8.00.
Same read-out and setting: the same measure for `C[C@@H]1C(=O)N[C@H](Cc2ccc(Cl)cc2)C(=O)NCCCc2cccc3c2OC(CC3)CN[C@@H](C2CC2)C(=O)N1C` (some centres unmarked) [Compound 947]: at least 8.00.
Turning to `C[C@@H]1CN[C@@H](C2CC2)C(=O)N(C)[C@H](C)C(=O)N[C@H](Cc2ccc(F)cc2)C(=O)NCCCc2cc(F)c(F)cc2O1` [Compound 950], the pKi was at least 6.30.
Same read-out and setting: for `C[C@@H]1CN[C@@H](C2CC2)C(=O)N(C)[C@H](C)C(=O)N[C@H](Cc2ccc(Cl)cc2)C(=O)NCCCc2cc(F)c(F)cc2O1` [Compound 951] the value was at least 6.30; for `CC[C@H](C)[C@@H]1NCCOc2ccccc2CCCNC(=O)[C@@H](Cc2ccccc2)NC(=O)[C@@H](CF)N(C)C1=O` [Compound 954], at least 6.30.
Compound `CC(C)[C@@H]1CN[C@@H](C2CC2)C(=O)N(C)[C@H](C)C(=O)N[C@H](Cc2ccccc2)C(=O)NCCCc2ccc(F)cc2O1` [Compound 965] showed a pKi of at least 6.30.
For `CC(C)[C@@H]1CN[C@@H](C2CC2)C(=O)N(C)[C@H](C)C(=O)N[C@H](Cc2ccc(Cl)cc2)C(=O)NCCCc2ccc(F)cc2O1` [Compound 966], the pKi is at least 6.30.
In turn, `C[C@@H]1CN[C@@H](C2CC2)C(=O)N(C)[C@H](C)C(=O)N[C@H](Cc2ccccn2)C(=O)NCCCc2ccccc2O1` [Compound 972] had a pKi of at least 7.00.
The same measure, in the same setting: the same measure for `CC[C@H](C)[C@@H]1NC[C@@H](C)Oc2c(F)cccc2CCCNC(=O)[C@@H](Cc2cccnc2)NC(=O)[C@@H](C)N(C)C1=O` [Compound 974]: at least 7.00.
Still for that read-out and setting: for `C[C@@H]1CN[C@@H](C2CC2)C(=O)N(C)[C@H](C)C(=O)N[C@H](Cc2ccncc2)C(=O)NCCCc2ccccc2O1` [Compound 977] the value was at least 6.30; for `CC[C@H](C)[C@@H]1NC[C@@H](C)Oc2ccccc2CCCNC(=O)[C@@H](Cc2ccncc2)NC(=O)[C@@H](C)N(C)C1=O` [Compound 978], at least 7.00; for `CC[C@H](C)[C@@H]1NC[C@@H](C)Oc2c(F)cccc2CCCNC(=O)[C@@H](CC(C)C)NC(=O)[C@@H](C)N(C)C1=O` [Compound 981], at least 8.00.
On the same count and under the same terms, for `CC(C)C[C@H]1NC(=O)[C@@H](C)N(C)C(=O)[C@H](C2CC2)NCCOc2cccnc2CCCNC1=O` [Compound 986] the value was below 6.30; for `CC[C@H](C)[C@@H]1NCCOc2cccnc2CCCNC(=O)[C@@H](CC(C)C)NC(=O)[C@@H](C)N(C)C1=O` [Compound 987], at least 6.30.
`C[C@@H]1C(=O)N[C@H](Cc2ccc(O)cc2)C(=O)NCCCc2ncccc2OCCN[C@@H](C2CC2)C(=O)N1C` [Compound 988] had a negative-log Ki (pKi) of at least 7.00.
Same read-out and setting: for `C[C@@H]1CN[C@@H](C2CC2)C(=O)N(C)[C@H](C)C(=O)N[C@H](Cc2ccc(O)cc2)C(=O)NCCCc2cccc(F)c2O1` [Compound 991] the value was at least 7.00; for `CC[C@H](C)[C@@H]1NCCOc2cccnc2CCCNC(=O)[C@@H](Cc2ccc(O)cc2)NC(=O)[C@@H](C)N(C)C1=O` [Compound 992], at least 7.00.
Still for that read-out and setting: the same measure for `CC[C@H](C)[C@@H]1NC[C@@H](C)Oc2ccccc2CCCNC(=O)[C@@H](Cc2ccc(O)cc2)NC(=O)[C@@H](C)N(C)C1=O` [Compound 993]: at least 7.00; for `CC[C@H](C)[C@@H]1NC[C@@H](C)Oc2c(F)cccc2CCCNC(=O)[C@@H](Cc2ccc(O)cc2)NC(=O)[C@@H](C)N(C)C1=O` [Compound 994]: at least 7.00.
For `C[C@@H]1C(=O)N[C@H](Cc2cccs2)C(=O)NCCCc2ncccc2OCCN[C@@H](C2CC2)C(=O)N1C` [Compound 995], the pKi is at least 7.00.
